Source: patent US11160797B2, “Pyridinone derivatives and their use as selective ALK-2 inhibitors” (NOVARTIS AG, priority 2017, dated 2021)
Read-outs that look alike come from different tables or passages of the source.

How the values were obtained:
[1] = biological target: T1, wild-type ALK2 (aa172-499) (Homo sapiens (Human), UniProt Q04771); test: ADPGlo biochemical autophosphorylation assay, ALK2; conditions: 15 uM ATP
[2] = biological target: T1, wild-type ALK2 (aa172-499); test: Caliper biochemical peptide phosphorylation assay, ALK2
[3] = biological target: ALK2 FOP mutant (aa172-499 R206H) (Homo sapiens (Human), UniProt Q04771, R206H); test: Caliper biochemical peptide phosphorylation assay, ALK2 FOP
[4] = biological target: ALK5 (aa162-503) (Homo sapiens (Human), UniProt P36897); test: Caliper biochemical peptide phosphorylation assay, ALK5; conditions: 15 uM ATP
Description: For all biochemical assays, human recombinant proteins were expressed in and purified from baculo virus transfected insect cells. The constructs comprised the GS-domain and kinase domain of wild-type ALK2 (aa172-499), ALK2 FOP mutant (aa172-499 R206H), ALK3 (aa198-525), ALK5 (aa162-503) and ALK6 (aa168-495).
A kinase selectivity panel which measures substrate peptide phosphorylation was set-up for wild-type ALK2 (aa172-499), ALK2 FOP mutant (aa172-499 R206H), ALK1 (aa166-493), ALK5 (aa162-503) and ALK6 (aa168-495). The technology used for the described assay is based on the separation and quantification of substrate and product in an electrical field. In the course of the kinase reaction the peptide substrate is phosphorylated by a kinase. […] Due to this difference in charge the phosphorylated und unphosphorylated peptides migrate with different velocities in an electrical field.
In the applied method, this separation takes place inside a chip that contains a complex capillary system for simultaneous analysis of 12 samples (“LabChip EZ Reader 12-sipper chip”, Caliper Technologies Corp., Mountain View, USA). In order to allow the detection and quantification of the peptides in the capillary system, the peptides carry a fluorescent label (fluorescein). With this label the peptides can be quantified by fluorescence intensity through the instruments laser and detection system (LC3000, Caliper Life Sciences).
The assays were performed in 384-well, low volume microtiter assay plates in a final reaction volume of 9 ul. Dose-response curves were generated by incubating 10 nM of each kinase together with 2 uM of the fluorescently labeled substrate peptide 5-Fluo-Ahx-[…]-T-[…]-amid (10 mM stock solution in DMSO) in 50 mM Hepes pH 7.5, 0.02% Tween 20, 0.02% BSA, 1 mM DTT, 10 uM Na3VO4, 10 mM ß-Glycerolphosphate, 1 mM MgCl2, 12 mM MnCl2 (ALK1 and ALK6 7 mM) and 15 uM ATP for 60 min at 30° C. in the presence or absence of compound diluted in DMSO.
Kinase reactions were terminated by adding 15 ul STOP buffer (100 mM HEPES pH 7.5, 5% DMSO, 0.1% Caliper coating reagent, 10 mM EDTA, and 0.015% Brij35.
Plates with terminated kinase reactions were transferred to the Caliper LC3000 workstation (Caliper Technologies Corp., Mountain View, USA) for reading. The relative amount of phosphorylated peptide r, was calculated using the heights of the substrate peak, s, and the product peak, p:r=p/(p+s).
IC50 values for a given antagonist correspond to the compound concentration needed to inhibit half of the maximum signal of the kinase reaction.

[5] = test system: HuH7 cells, BMP response element (BRE) luciferase reporter, BMP6 stimulated; test: BMP signaling reporter gene assay; type: cell-based; conditions: Homo sapiens, Huh-7; BMP6 100 ng/ml; read-out: MSD HuH7 cell BMP reporter IC50
[6] = biological target: ALK1 (aa166-493) (Homo sapiens (Human), UniProt P37023); test: Caliper biochemical peptide phosphorylation assay, ALK1; conditions: 15 uM ATP
[7] = Caliper peptide phosphorylation, 15 uM ATP, read-out: ALK2 IC50
[8] = Caliper peptide phosphorylation, R206H, 15 uM ATP, read-out: ALK2 FOP EPK IC50

T1 sequence (Q04771 172-499): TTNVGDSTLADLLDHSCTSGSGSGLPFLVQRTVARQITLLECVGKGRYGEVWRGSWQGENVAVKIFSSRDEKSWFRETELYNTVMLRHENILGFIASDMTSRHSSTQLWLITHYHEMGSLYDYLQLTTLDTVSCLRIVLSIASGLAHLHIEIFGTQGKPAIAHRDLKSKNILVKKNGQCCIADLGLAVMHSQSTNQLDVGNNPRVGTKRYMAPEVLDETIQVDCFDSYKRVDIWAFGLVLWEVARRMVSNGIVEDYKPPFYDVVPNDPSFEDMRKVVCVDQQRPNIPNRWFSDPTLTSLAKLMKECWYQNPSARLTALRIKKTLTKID
Sequence of ALK1 (aa166-493) (P37023 166-493): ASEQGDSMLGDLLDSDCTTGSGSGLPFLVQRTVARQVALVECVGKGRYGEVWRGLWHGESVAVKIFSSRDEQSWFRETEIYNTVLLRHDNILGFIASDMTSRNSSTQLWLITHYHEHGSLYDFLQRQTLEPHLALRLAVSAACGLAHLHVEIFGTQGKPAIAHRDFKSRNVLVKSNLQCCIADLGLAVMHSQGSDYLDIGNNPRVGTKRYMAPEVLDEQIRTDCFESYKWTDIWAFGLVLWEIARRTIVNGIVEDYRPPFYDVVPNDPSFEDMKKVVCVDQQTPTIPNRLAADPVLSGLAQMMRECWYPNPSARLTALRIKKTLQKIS
Sequence of ALK2 FOP mutant (aa172-499 R206H) (Q04771 172-499 R206H): as the sequence (Q04771 172-499) above, with R35H counted along it
Sequence of ALK5 (aa162-503) (P36897 162-503): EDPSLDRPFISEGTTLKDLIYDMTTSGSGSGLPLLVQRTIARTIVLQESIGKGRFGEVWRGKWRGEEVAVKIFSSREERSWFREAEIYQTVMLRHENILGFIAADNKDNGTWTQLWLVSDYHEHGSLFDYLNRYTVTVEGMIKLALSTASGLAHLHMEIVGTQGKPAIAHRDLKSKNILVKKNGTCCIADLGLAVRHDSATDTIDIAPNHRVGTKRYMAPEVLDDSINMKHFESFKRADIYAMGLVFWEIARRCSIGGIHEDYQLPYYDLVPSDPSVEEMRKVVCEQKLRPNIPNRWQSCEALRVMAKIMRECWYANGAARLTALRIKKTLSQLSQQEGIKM

Row | Structure (SMILES) | IC50 [1] [nM] | IC50 [2, 7] [nM] | IC50 [3, 8] [nM] | IC50 [4] [nM] | IC50 ([2]; read-out: IC50 in the ALK2 assay) [nM] | IC50 ([3]; read-out: IC50 in the ALK2-FOP assay) [nM] | IC50 [6] [nM] | IC50 [5] [nM]
1 | CCN1C(=O)Cc2cc(-c3cncc(-c4ccc(=O)n(C(C)C)c4)c3)ccc21 [Example 20, 1-Ethyl-5-(1′-isopropyl-6′-oxo-1′,6′-dihydro-[3,3′-bipyridin]-5-yl)indolin-2-one] | 110 | 90 | 90 | 2500 |  |  |  | 140
2 | CC(C)n1cc(-c2cncc(-c3cnc4c(c3)C(C)(C)C(=O)N4C)c2)ccc1=O [5-(1′-isopropyl-6′-oxo-1′,6′-dihydro-[3,3′-bipyridin]-5-yl)-1,3,3-trimethyl-1H-pyrrolo[2,3-b]pyridin-2(3H)-one] |  |  |  |  | > 1000 | > 1000 |  | 
3 | CCC(CC)n1cc(-c2cncc(-c3ccc4c(c3)CC(=O)N4C)c2)ccc1=O [Example 4, 1-methyl-5-(6′-oxo-1′-(pentan-3-yl)-1′,6′-dihydro-[3,3′-bipyridin]-5-yl)indolin-2-one] | 1300 | 600 | 650 | > 10000 |  |  |  | 
4 | CCn1cc(-c2cncc(-c3ccc4c(c3)CC(=O)N4C)c2)ccc1=O [Example 9, 5-(1′-ethyl-6′-oxo-1′,6′-dihydro-[3,3′-bipyridin]-5-yl)-1-methylindolin-2-one] | 490 | 460 | 400 | > 10000 |  |  |  | 540
5 | CCC(C)n1cc(-c2cncc(-c3ccc4c(c3)CC(=O)N4C)c2)ccc1=O (stereo not drawn) [Example 7, 5-(1′-(sec-butyl)-6′-oxo-1′,6′-dihydro-[3,3′-bipyridin]-5-yl)-1-methylindolin-2-one] | 230 | 190 | 170 | 4400 |  |  | 1200 | 

Continued, in another order:

Row | IC50 [1] [nM] | IC50 [2, 7] [nM] | IC50 [3, 8] [nM] | IC50 [4] [nM] | IC50 ([2]; read-out: IC50 in the ALK2 assay) [nM] | IC50 ([3]; read-out: IC50 in the ALK2-FOP assay) [nM] | IC50 [6] [nM] | Structure (SMILES) | IC50 [5] [nM]
6 |  |  |  | 6000 |  |  | 1500 | COCCCN1C(=O)Cc2cc(-c3cncc(-c4ccc(=O)n(C(C)C)c4)c3)ccc21 [Example 30, 5-(1′-isopropyl-6′-oxo-1′,6′-dihydro-[3,3′-bipyridin]-5-yl)-1-(3-methoxypropyl)indolin-2-one] | 
7 | 710 | 470 | 590 | > 10000 |  |  |  | CC(C)n1cc(-c2cncc(-c3ccc4c(c3)N(C)C(=O)C4)c2)ccc1=O [Example 26, 6-(1′-Isopropyl-6′-oxo-1′,6′-dihydro-[3,3′-bipyridin]-5-yl)-1-methylindolin-2-one] | 
8 |  |  |  | 690 |  |  | 280 | CC(C)n1cc(-c2cncc(-c3ccc4c(c3)NC(=O)C4(C)C)c2)ccc1=O [Example 32, 6-(1′-isopropyl-6′-oxo-1′,6′-dihydro-[3,3′-bipyridin]-5-yl)-3,3-dimethylindolin-2-one] | 
9 | 31 | 30 | 20 | 580 |  |  |  | CC(C)n1cc(-c2cncc(-c3ccc4c(c3)CCC(=O)N4C)c2)ccc1=O [Example 28, 6-(1′-Isopropyl-6′-oxo-1′,6′-dihydro-[3,3′-bipyridin]-5-yl)-1-methyl-3,4-dihydroquinolin-2(1H)-one] | 
10 | 1700 | 880 | 1200 | > 10000 |  |  | > 10000 | COCCN1C(=O)Cc2cc(-c3cncc(-c4ccc(=O)n(C(C)C)c4)c3)cnc21 [Example 27, 5-(1′-Isopropyl-6′-oxo-1′,6′-dihydro-[3,3′-bipyridin]-5-yl)-1-(2-methoxyethyl)-1H-pyrrolo[2,3-b]pyridin-2(3H)-one] | 
11 | 140 | 130 | 150 | 6800 |  |  | 1600 | COCCN1C(=O)Cc2cc(-c3cncc(-c4ccc(=O)n(C(C)C)c4)c3)ccc21 [Example 29, 5-(1′-Isopropyl-6′-oxo-1′,6′-dihydro-[3,3′-bipyridin]-5-yl)-1-(2-methoxyethyl)indolin-2-one] | 
12 | 690 | 380 | 380 | > 10000 |  |  | 3600 | CC(C)n1cc(-c2cncc(-c3ccc4c(c3)CC(=O)N4C)c2F)ccc1=O [Example 52, 5-(4-fluoro-1′-isopropyl-6′-oxo-1′,6′-dihydro-[3,3′-bipyridin]-5-yl)-1-methylindolin-2-one] | 
